According to ChEMBL document CHEMBL1909046, “DrugMatrix in vitro pharmacology data”:

Experiments:
[1] = DRUGMATRIX: Atrial Natriuretic Factor (ANF) radioligand binding (ligand: [125I] ANF (rat)); type: cell membranes, Cavia porcellus, Dunkin-Hartley, Adrenal gland, Membrane; conditions: Not Active = under 50% inhibition at 10 µM
[2] = biological target: Beta-2 adrenergic receptor (Homo sapiens, UniProt P07550); test: DRUGMATRIX: Adrenergic beta2 radioligand binding (ligand: [3H] CGP-12177); type: cell membranes, Membrane; conditions: cho; Not Active = under 50% inhibition at 10 µM
Beta-2 adrenergic receptor, sequence (P07550 whole entry): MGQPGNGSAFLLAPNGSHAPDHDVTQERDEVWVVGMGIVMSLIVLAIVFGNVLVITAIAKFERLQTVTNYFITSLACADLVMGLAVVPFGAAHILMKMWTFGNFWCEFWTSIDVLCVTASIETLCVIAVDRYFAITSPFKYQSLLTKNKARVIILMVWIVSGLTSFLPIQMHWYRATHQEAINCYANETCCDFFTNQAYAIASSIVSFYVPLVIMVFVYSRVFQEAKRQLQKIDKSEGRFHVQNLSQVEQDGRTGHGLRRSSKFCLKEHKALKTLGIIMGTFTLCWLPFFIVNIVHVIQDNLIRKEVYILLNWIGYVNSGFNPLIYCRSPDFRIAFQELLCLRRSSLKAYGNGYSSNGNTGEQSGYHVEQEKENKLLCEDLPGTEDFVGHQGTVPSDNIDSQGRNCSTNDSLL

[3] = biological target: T1, Polyunsaturated fatty acid lipoxygenase ALOX15 (Oryctolagus cuniculus, UniProt P12530); test: biochemical; type: tissue-based, Reticulocytes; conditions: reticulocytes;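 note: inhibition of 15-lipoxygenase enzyme activity measured with linoleic acid as the substrate; in other assays of this panel Not Active means under 50% inhibition at 10 µM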
T1 sequence (P12530 whole entry): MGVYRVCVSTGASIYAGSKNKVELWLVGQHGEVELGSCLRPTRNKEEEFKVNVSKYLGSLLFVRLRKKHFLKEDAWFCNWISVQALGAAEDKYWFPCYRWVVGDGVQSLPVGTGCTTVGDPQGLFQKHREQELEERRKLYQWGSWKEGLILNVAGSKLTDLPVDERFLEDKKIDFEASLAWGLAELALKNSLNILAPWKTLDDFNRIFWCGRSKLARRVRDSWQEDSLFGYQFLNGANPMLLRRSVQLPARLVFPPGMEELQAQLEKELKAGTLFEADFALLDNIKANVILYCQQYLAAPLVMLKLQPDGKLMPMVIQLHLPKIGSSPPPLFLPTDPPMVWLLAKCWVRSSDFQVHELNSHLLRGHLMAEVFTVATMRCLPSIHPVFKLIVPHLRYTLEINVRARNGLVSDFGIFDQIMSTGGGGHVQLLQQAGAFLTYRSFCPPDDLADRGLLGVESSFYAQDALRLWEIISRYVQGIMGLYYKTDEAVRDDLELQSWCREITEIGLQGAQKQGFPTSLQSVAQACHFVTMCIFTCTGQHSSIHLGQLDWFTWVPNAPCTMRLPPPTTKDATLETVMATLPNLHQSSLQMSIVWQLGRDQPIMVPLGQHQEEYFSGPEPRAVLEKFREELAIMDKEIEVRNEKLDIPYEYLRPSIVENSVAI

[4] = biological target: Vascular endothelial growth factor receptor 1 (Homo sapiens, UniProt P17948); type: cell-based; conditions: huvec; note: in other assays of this panel Not Active means under 50% inhibition at 10 µM
Vascular endothelial growth factor receptor 1, sequence (P17948 whole entry): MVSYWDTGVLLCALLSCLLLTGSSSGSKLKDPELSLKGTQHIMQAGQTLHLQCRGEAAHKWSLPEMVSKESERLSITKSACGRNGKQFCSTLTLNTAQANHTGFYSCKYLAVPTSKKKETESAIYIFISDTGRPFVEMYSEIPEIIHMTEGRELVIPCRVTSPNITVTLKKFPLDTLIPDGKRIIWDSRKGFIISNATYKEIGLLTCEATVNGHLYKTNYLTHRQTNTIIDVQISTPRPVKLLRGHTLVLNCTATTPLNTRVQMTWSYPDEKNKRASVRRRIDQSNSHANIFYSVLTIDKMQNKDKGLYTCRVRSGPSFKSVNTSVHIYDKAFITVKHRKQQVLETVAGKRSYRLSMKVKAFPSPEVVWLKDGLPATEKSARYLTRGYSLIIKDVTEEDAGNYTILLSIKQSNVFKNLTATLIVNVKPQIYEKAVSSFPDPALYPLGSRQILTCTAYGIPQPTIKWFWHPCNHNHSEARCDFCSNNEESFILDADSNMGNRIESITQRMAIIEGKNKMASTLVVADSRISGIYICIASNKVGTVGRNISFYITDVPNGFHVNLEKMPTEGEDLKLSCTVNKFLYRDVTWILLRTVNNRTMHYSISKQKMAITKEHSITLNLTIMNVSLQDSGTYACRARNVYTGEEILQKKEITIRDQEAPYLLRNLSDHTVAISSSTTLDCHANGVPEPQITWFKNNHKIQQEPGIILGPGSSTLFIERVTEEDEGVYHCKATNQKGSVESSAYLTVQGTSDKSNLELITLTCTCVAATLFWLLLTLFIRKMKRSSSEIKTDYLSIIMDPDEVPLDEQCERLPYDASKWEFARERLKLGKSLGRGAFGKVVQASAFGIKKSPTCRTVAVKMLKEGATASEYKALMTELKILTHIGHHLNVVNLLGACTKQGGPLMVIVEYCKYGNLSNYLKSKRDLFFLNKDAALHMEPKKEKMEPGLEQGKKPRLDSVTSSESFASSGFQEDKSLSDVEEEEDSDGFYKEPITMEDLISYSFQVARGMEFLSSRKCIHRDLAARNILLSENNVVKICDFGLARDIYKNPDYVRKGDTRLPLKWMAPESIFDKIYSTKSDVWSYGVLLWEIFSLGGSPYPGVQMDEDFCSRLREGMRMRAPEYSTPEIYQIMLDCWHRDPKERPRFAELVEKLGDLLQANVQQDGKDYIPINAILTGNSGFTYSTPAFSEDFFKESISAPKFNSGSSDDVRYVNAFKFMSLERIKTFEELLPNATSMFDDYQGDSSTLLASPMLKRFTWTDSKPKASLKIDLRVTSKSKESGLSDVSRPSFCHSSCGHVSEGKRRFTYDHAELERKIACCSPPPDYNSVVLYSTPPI

[5] = biological target: Mitogen-activated protein kinase 14 (Homo sapiens, UniProt Q16539); set-up: species or system Escherichia coli;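 note: inhibition of p38alpha enzyme activity in a biochemical kinase assay, with myelin basic protein serving as substrate; in other assays of this panel Not Active means under 50% inhibition at 10 µM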
Mitogen-activated protein kinase 14, sequence (Q16539 whole entry): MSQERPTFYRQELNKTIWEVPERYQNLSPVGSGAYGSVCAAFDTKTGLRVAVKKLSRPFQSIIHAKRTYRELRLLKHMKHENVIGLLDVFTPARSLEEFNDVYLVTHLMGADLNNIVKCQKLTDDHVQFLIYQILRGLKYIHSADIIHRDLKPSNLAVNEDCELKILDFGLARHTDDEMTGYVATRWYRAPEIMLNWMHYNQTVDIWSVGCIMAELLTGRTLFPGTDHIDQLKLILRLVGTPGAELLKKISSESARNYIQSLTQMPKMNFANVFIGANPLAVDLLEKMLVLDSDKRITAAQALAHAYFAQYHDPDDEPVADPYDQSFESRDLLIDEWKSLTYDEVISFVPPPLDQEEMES

[6] = DRUGMATRIX: Glutamate, AMPA radioligand binding (ligand: [3H] AMPA); type: cell membranes, Rattus norvegicus, Wistar, Cerebral cortex, Membrane; conditions: Not Active = under 50% inhibition at 10 µM
[7] = biological target: T2, Adenosine receptor A1 (Homo sapiens, UniProt P30542); type: cell membranes, CHO, Membrane; conditions: cho;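 note: radioligand binding assay at the adenosine A1 receptor, with DPCPX serving as the labelled ligand; in other assays of this panel Not Active means under 50% inhibition at 10 µM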
T2 sequence (P30542 whole entry): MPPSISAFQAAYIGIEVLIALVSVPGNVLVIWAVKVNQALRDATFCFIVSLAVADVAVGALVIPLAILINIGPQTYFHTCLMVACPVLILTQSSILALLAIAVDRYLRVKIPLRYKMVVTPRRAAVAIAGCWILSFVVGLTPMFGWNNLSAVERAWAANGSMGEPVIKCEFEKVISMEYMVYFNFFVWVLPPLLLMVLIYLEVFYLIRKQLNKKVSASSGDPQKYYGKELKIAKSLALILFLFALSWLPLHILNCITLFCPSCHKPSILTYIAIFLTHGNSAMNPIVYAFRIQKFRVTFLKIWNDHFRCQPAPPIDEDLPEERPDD

[8] = biological target: D(3) dopamine receptor (Homo sapiens, UniProt P35462); test: DRUGMATRIX: Dopamine D3 radioligand binding (ligand: [3H] Spiperone); type: cell membranes, CHO, Membrane; conditions: cho
D(3) dopamine receptor, sequence (P35462 whole entry): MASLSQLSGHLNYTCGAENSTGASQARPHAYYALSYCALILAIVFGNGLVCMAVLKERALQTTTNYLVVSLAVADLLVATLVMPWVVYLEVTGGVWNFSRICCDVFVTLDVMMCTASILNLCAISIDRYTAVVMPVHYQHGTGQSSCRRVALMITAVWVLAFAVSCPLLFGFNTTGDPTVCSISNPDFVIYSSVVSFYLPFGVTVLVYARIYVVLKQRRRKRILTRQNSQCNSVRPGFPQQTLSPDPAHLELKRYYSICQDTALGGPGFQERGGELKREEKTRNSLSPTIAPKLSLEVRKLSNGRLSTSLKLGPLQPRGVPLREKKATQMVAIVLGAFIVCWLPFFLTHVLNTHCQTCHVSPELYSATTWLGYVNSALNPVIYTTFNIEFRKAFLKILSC

[9] = biological target: T3, Alpha-2A adrenergic receptor (Homo sapiens, UniProt P08913); type: cell membranes, Sf9, Membrane; conditions: sf9; note: in other assays of this panel Not Active means under 50% inhibition at 10 µM
T3 sequence (P08913 whole entry): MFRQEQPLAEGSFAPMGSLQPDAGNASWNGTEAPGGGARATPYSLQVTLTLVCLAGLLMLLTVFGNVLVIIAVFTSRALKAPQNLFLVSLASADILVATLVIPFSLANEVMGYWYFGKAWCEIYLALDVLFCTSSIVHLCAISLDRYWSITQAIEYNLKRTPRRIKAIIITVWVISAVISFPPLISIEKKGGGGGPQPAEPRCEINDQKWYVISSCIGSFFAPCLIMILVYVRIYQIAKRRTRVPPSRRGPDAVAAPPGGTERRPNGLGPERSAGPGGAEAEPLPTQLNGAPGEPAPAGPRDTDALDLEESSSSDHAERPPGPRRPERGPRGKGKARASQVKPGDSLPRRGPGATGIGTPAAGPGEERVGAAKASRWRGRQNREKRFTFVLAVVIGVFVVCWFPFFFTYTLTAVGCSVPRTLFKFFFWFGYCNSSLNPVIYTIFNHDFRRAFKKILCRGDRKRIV

[10] = DRUGMATRIX: Calcium Channel Type L, Dihydropyridine radioligand binding (ligand: [3H] Nitrendipine); type: cell membranes, Rattus norvegicus, Wistar, Cerebral cortex, Membrane; conditions: Not Active = under 50% inhibition at 10 µM
[11] = biological target: Substance-P receptor (Homo sapiens, UniProt P25103); type: cell membranes, CHO, Membrane; conditions: cho; note: in other assays of this panel Not Active means under 50% inhibition at 10 µM
Substance-P receptor, sequence (P25103 whole entry): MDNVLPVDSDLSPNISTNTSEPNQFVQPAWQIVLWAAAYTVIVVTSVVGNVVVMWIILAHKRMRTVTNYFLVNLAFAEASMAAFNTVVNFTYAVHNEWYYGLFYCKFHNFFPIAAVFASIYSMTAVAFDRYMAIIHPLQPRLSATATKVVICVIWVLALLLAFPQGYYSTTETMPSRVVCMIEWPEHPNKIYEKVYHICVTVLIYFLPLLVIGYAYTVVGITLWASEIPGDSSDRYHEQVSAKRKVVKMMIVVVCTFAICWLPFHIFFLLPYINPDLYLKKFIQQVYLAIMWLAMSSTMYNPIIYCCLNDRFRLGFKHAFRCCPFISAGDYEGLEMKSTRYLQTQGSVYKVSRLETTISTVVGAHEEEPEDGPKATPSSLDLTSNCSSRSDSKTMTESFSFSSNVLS

[12] = DRUGMATRIX: beta-Lactamase enzyme inhibition (substrate: Nitrocefin); set-up: species or system Bacillus cereus; conditions: Not Active = under 50% inhibition at 10 µM
[13] = biological target: D(1A) dopamine receptor (Homo sapiens, UniProt P21728); test: DRUGMATRIX: Dopamine D1 radioligand binding (ligand: [3H] SCH-23390); type: cell membranes, CHO, Membrane; conditions: cho; Not Active = under 50% inhibition at 10 µM
D(1A) dopamine receptor, sequence (P21728 whole entry): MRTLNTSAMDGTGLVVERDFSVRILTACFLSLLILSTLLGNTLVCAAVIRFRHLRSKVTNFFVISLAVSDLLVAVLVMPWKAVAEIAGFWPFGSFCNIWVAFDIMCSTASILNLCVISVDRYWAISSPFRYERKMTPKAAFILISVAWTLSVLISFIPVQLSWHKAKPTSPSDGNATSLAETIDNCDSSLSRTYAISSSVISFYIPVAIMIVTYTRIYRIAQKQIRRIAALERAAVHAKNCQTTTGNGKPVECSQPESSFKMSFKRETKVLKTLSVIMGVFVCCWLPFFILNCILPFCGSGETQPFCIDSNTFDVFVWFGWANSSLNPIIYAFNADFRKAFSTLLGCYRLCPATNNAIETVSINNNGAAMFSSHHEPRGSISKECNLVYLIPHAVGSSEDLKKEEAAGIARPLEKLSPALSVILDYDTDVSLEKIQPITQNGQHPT

[14] = biological target: T4, Cholecystokinin receptor type A (Homo sapiens, UniProt P32238); type: cell membranes, Membrane; conditions: 1321-n1; note: in other assays of this panel Not Active means under 50% inhibition at 10 µM
T4 sequence (P32238 whole entry): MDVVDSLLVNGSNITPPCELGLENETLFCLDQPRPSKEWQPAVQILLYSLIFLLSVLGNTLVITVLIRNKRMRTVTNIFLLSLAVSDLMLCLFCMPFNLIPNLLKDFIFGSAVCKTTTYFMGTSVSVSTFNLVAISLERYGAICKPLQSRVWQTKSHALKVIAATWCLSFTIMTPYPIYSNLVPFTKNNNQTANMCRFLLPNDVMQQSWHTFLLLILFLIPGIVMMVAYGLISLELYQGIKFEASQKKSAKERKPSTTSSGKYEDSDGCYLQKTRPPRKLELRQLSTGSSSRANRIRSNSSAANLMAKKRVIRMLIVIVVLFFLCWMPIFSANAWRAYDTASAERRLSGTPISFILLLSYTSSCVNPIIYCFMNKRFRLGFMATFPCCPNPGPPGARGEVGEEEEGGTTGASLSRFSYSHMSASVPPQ

[15] = biological target: Aldo-keto reductase family 1 member B1 (Rattus norvegicus, UniProt P07943); type: tissue-based, Lens of camera-type eye
[16] = biological target: 5-hydroxytryptamine receptor 2B (Homo sapiens, UniProt P41595); type: cell membranes, CHO-K1, Membrane; conditions: cho-k1; note: in other assays of this panel Not Active means under 50% inhibition at 10 µM
5-hydroxytryptamine receptor 2B, sequence (P41595 whole entry): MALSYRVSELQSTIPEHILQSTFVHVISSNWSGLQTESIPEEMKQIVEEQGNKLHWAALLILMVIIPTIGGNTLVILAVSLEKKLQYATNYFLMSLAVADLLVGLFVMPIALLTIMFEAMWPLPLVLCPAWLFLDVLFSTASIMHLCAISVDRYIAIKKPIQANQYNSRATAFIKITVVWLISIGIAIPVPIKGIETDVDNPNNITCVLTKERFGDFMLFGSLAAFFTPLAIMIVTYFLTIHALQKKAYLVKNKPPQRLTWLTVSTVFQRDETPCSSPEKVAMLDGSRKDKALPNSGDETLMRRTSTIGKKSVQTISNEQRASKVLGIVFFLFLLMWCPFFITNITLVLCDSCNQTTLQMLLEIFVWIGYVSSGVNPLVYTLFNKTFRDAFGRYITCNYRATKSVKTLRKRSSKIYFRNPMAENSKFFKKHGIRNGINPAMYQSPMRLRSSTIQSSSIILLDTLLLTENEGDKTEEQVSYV

[17] = biological target: C-C chemokine receptor type 5 (Homo sapiens, UniProt P51681); type: cell membranes, Membrane; conditions: hek293; note: in other assays of this panel Not Active means under 50% inhibition at 10 µM
C-C chemokine receptor type 5, sequence (P51681 whole entry): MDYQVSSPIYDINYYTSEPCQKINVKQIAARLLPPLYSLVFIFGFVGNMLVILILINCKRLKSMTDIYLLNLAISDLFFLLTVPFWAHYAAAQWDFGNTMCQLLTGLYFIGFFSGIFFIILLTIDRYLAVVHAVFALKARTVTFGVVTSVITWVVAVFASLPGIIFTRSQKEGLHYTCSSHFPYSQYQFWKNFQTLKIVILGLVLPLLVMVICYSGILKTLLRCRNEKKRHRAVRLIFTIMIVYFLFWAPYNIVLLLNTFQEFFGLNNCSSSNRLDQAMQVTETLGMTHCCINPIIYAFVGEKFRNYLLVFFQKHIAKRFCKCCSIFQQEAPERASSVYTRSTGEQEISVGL

COc1ccc(C(CN(C)C)C2(O)CCCCC2)cc1 (configuration not stated) [VENLAFAXINE]
Not Active: IC50 [1] | Ki [1] | IC50 [2] | IC50 [3] | IC50 [4] | IC50 [5] | IC50 [6] | Ki [6] | IC50 [7] | IC50 [8] | IC50 [9] | IC50 [10] | Ki [10] | IC50 [11] | IC50 [12] | Ki [12] | IC50 [13] | IC50 [14] | IC50 [15] | IC50 [16] | IC50 [17]

CN(N=O)C(=O)N[C@@H](C=O)[C@@H](O)[C@H](O)[C@H](O)CO [STREPTOZOCIN]
Not Active: IC50 [1] | Ki [1] | IC50 [2] | IC50 [3] | IC50 [4] | IC50 [5] | IC50 [6] | Ki [6] | IC50 [7] | IC50 [8] | IC50 [9] | IC50 [10] | Ki [10] | IC50 [11] | IC50 [12] | Ki [12] | IC50 [13] | IC50 [14] | IC50 [15] | IC50 [16] | IC50 [17]
